Measured values reported in patent US12310973B2, “Administration and dosage of diaminophenothiazines” (WisTa Laboratories Ltd., priority 2016, dated 2025).

Tested on: mild to moderate AD patients
Test: Phase 3 trial in mild to moderate AD: MRI volumetry (LVV, TPV, HV)
Format: in vivo, human
Conditions: for HV, Estimate (difference vs control) / LVV, Estimate (difference vs control) / TPV, Estimate (difference vs control): Table 5
Description: The co-primary efficacy outcomes were change from baseline in 11-item Alzheimer's Disease Assessment Scale—cognitive subscale (ADAS-cog) and the 23-item Alzheimer's Disease Cooperative Study Activities of Daily Living (ADCS-ADL). Magnetic resonance imaging (MRI) volumetry was chosen as the principal secondary outcome to support a potential effect on the rate of brain atrophy (Fox et al., 1997; Ridha et al., 2008). Change in Lateral Ventricular Volume (LVV), as measured by the Ventricular Boundary Shift Integral (VBSI), (Salloway et al., 2014) was chosen as the principal measure as it provides high-contrast boundaries for measurement and is less affected by motion artefacts than whole brain or smaller structures. Key supportive topographical measures (temporo-parietal (TPV) and hippocampal volume (HV)) are also reported.
ADAS-cog and ADCS-ADL assessments were performed at baseline and every 13 weeks thereafter, with change at 65 weeks (the final on-treatment visit) the primary efficacy measures. These were repeated at the final off-treatment follow-up visit at Week 69. Secondary efficacy measures included Clinical Global Impression of Change (ADCS-CGIC, administered by an independent rater); MMSE, administered on screening and at Weeks 26, 52, 65 and 69. Brain MRI scans were performed at baseline/screening and every 13 weeks using a standardized protocol including volumetric 3D T1-weighted data consistent with ADNI recommendations, FLAIR, T2* Gradient Echo and T2-weighted sequences. Diffusion-Weighted Imaging was also available at screening in order to exclude patients with co-existing pathology that would lead to a diagnosis other than probable AD. Each site was first qualified ensuring standardised acquisition protocol, patient handling and data management. MRI data were centrally collected by Imaging Corelab (Bioclinica). Data were centrally reviewed by RadMD for eligibility and safety (Amyloid Related Imaging Abnormalities, or ARIA monitoring) on an on-going basis. Volumetric 3DT1 data were also reviewed centrally in order to measure (using a boundary shift integral (BSI) technique; Salloway et al., 2014) change in LVV as principal secondary outcome measure, and as exploratory endpoints temporo-parietal volume (TPV), whole brain volume (WBV) and hippocampal volume (HV, estimated as the mean of left and right) (Wischik et al., 2016). Additional exploratory endpoints included change in glucose uptake in the temporal lobe, assessed using ^18F-fluorodeoxyglucose positron emission tomography (FDG-PET) performed during screening and at Weeks 39 and 65 in a subset of patients in sites with this imaging capability. Changes in cerebrospinal fluid biomarkers of Alzheimer's disease, including total tau, phospho-tau and amyloid-β1-42, were explored using cerebrospinal fluid samples that were collected at baseline and Week 65 (or early termination visit). Lumbar punctures were performed only in subjects who were themselves able to provide consent specifically for this procedure.
The primary efficacy analyses of change from baseline in ADAS-cog and ADCS-ADL scores were conducted in the modified intent-to-treat (mITT) population (all randomised patients who took at least one dose of study treatment and had at least one post-baseline, on-treatment efficacy assessment). The primary analysis was specified as a mixed model repeated-measures (MMRM) analysis with an unstructured covariance matrix and no imputation for missing data. The model included categorical visit (5 levels corresponding to assessments at weeks 13, 26, 39, 52 and 65), treatment (3 levels corresponding to control, 75 mg b.i.d. and 125 mg b.i.d.), treatment-by-visit interaction, and the stratification variables as additive terms, and baseline ADAS-cog or ADCS-ADL as a covariate. A similar exploratory analysis was specified in the Statistical Analysis Plan (SAP) with the AChEI/Mem covariate as an interaction term with treatment and as an interaction term with visit. […]

[1] = Table 5, AChEI/Mem as interaction term, control arm (4 mg b.i.d.)
[2] = Table 6 post-hoc, control-arm subjects, 4 mg b.i.d. + AChEI/Mem
[3] = Table 6 post-hoc, 4 mg b.i.d. alone vs 4 mg b.i.d. + AChEI/Mem
[4] = Table 7, mild AD, 4 mg b.i.d. + AChEI/Mem (control-arm subjects)
[5] = Table 7, mild AD, 4 mg b.i.d. alone vs 4 mg b.i.d. + AChEI/Mem
[6] = Table 7, mild AD, 75 mg b.i.d. alone vs control arm as randomised
[7] = Table 7, mild AD, 125 mg b.i.d. alone vs control arm as randomised
[8] = Table 7, mild AD, control arm as randomised (4 mg b.i.d.)
[9] = Table 7, moderate AD, 4 mg b.i.d. + AChEI/Mem (control-arm subjects)
[10] = Table 7, moderate AD, 4 mg b.i.d. alone vs 4 mg b.i.d. + AChEI/Mem
[11] = Table 7, moderate AD, 75 mg b.i.d. alone vs control arm as randomised
[12] = Table 7, moderate AD, 125 mg b.i.d. alone vs control arm as randomised
[13] = Table 7, moderate AD, control arm as randomised (4 mg b.i.d.)

CN(C)c1ccc2c(c1)Sc1cc(N(C)C)ccc1N2 [LMTM, leuco-methythioninium bis(hydromethanesulfonate)]
Increase in TPV relative to control (75 mg b.i.d. monotherapy): 31%±8%
Reduction in LVV (progression of atrophy) relative to control (75 mg b.i.d. monotherapy): 38%±9%
Increase in TPV relative to control (125 mg b.i.d. monotherapy): 26%±8%
Reduction in LVV (progression of atrophy) relative to control (125 mg b.i.d. monotherapy): 33%±9%
HV, Estimate (change from baseline) [1]: −115.3 mm^3
LVV, Estimate (change from baseline) [1]: 7,187 mm^3
TPV, Estimate (change from baseline) [1]: −1529 mm^3
HV, Estimate (difference vs control) (75 mg b.i.d. + AChEI/Mem): −2.0 mm^3
LVV, Estimate (difference vs control) (75 mg b.i.d. + AChEI/Mem): −273 mm^3
TPV, Estimate (difference vs control) (75 mg b.i.d. + AChEI/Mem): −39 mm^3
HV, Estimate (difference vs control) (75 mg b.i.d. monotherapy): 9.5 mm^3
LVV, Estimate (difference vs control) (75 mg b.i.d. monotherapy): −2,707 mm^3
TPV, Estimate (difference vs control) (75 mg b.i.d. monotherapy): 472 mm^3
HV, Estimate (difference vs control) (125 mg b.i.d. + AChEI/Mem): −7.4 mm^3
LVV, Estimate (difference vs control) (125 mg b.i.d. + AChEI/Mem): −306 mm^3
TPV, Estimate (difference vs control) (125 mg b.i.d. + AChEI/Mem): −12 mm^3
HV, Estimate (difference vs control) (125 mg b.i.d. monotherapy): 20.0 mm^3
LVV, Estimate (difference vs control) (125 mg b.i.d. monotherapy): −2,347 mm^3
TPV, Estimate (difference vs control) (125 mg b.i.d. monotherapy): 405 mm^3
HV, Estimate (change from baseline) [2]: −117.8 mm^3
LVV, Estimate (change from baseline) [2]: 7,426 mm^3
TPV, Estimate (change from baseline) [2]: −1,596 mm^3
HV, Estimate (difference) [3]: 19.5 mm^3
LVV, Estimate (difference) [3]: −1,894 mm^3
TPV, Estimate (difference) [3]: 534 mm^3
HV, Estimate (change from baseline) [4]: −119.5 mm^3
LVV, Estimate (change from baseline) [4]: 6,167 mm^3
TPV, Estimate (change from baseline) [4]: −1,398 mm^3
HV, Estimate (difference) [5]: 46.7 mm^3
LVV, Estimate (difference) [5]: −2,655 mm^3
TPV, Estimate (difference) [5]: 722 mm^3
HV, Estimate (difference) [6]: 16.9 mm^3
LVV, Estimate (difference) [6]: −2,549 mm^3
TPV, Estimate (difference) [6]: 392 mm^3
HV, Estimate (difference) [7]: 40.5 mm^3
LVV, Estimate (difference) [7]: −2,695 mm^3
TPV, Estimate (difference) [7]: 439 mm^3
HV, Estimate (change from baseline) [8]: −115.8 mm^3
LVV, Estimate (change from baseline) [8]: 5,789 mm^3
TPV, Estimate (change from baseline) [8]: −1,309 mm^3
HV, Estimate (change from baseline) [9]: −116.6 mm^3
LVV, Estimate (change from baseline) [9]: 8,143 mm^3
TPV, Estimate (change from baseline) [9]: −1,697 mm^3
HV, Estimate (difference) [10]: −2.4 mm^3
LVV, Estimate (difference) [10]: −940 mm^3
TPV, Estimate (difference) [10]: 370 mm^3
HV, Estimate (difference) [11]: 3.6 mm^3
LVV, Estimate (difference) [11]: −2,251 mm^3
TPV, Estimate (difference) [11]: 469 mm^3
HV, Estimate (difference) [12]: 2.2 mm^3
LVV, Estimate (difference) [12]: −1,703 mm^3
TPV, Estimate (difference) [12]: 293 mm^3
HV, Estimate (change from baseline) [13]: −116.9 mm^3
LVV, Estimate (change from baseline) [13]: 8,023 mm^3
TPV, Estimate (change from baseline) [13]: −1,649 mm^3
Hippocampus volume benefit (increase) (mild patients, LMTM monotherapy): 35.5 mm^3
